The target in experiment [1] is PIM (PIM-1, PIM-2, and/or PIM-3). Kind of experiment: PIM-1, PIM-2 and PIM-3 inhibition, biochemical chemiluminescence assays (Kinase Glo, IC50 determination). The conditions noted are these: Table 1 activity class; PIM refers to PIM-1, PIM-2, and/or PIM-3; read-out: PIM IC50 (Activity B). On the technique in general: In Kinase-Glo more light means more ATP remaining.

Another experiment has as its target CK2 (Homo sapiens, UniProt P68400). In words: CK2 inhibition, biochemical chemiluminescence holoenzyme assay (Kinase Glo, IC50 determination). The conditions noted are these: Table 1 activity class; symbol given only if active; read-out: CK2 IC50 (Activity C). Put shortly: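 Holoenzyme CK2 assay; compounds pre-incubated with substrate and enzyme, then reacted 150 min at 24-27° C. Remaining ATP measured as luminescence with Kinase Glo, and IC50 derived from the signal.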

In another experiment the target is CDC7 (Homo sapiens, UniProt O00311). In words: CDC7 inhibition, biochemical chemiluminescence assay (Kinase Glo, IC50 determination). Put shortly: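 CDC7 enzyme preincubated with compound 10 min at ambient temperature, then ATP mix in Tris Base added; reaction 90 min at 24-27 °C. Remaining ATP quantified by Kinase Glo luminescence to give IC50.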
Where [2] appears, read: Table 1 activity class, symbol given only if active, read-out: CDC7 IC50 (Activity A).
Where [3] appears, read: compounds in Table 1, read-out: CDC7 IC50 value.

Where a name gives a salt, the structure may show the parent alone. Read-outs that look alike come from different tables or passages of the source.

CK2, sequence (P68400 whole entry): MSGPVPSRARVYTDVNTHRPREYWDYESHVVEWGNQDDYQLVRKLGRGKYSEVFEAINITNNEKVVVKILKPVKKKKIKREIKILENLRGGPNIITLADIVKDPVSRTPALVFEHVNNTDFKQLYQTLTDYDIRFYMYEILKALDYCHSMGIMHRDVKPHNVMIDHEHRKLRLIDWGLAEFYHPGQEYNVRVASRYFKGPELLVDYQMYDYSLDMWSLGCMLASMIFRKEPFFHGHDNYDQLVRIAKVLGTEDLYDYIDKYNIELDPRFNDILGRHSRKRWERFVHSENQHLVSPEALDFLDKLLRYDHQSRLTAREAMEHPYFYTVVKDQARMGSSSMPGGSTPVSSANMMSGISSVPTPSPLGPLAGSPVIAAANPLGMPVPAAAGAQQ
CK2, sequence (P67870 whole entry partner): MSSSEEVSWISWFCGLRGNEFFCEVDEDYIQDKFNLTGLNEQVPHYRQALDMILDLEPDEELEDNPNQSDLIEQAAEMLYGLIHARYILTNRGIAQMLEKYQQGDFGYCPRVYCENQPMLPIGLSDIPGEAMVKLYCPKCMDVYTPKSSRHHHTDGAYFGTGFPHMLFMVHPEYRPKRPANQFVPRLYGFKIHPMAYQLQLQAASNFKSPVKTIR
CDC7, sequence (O00311 whole entry): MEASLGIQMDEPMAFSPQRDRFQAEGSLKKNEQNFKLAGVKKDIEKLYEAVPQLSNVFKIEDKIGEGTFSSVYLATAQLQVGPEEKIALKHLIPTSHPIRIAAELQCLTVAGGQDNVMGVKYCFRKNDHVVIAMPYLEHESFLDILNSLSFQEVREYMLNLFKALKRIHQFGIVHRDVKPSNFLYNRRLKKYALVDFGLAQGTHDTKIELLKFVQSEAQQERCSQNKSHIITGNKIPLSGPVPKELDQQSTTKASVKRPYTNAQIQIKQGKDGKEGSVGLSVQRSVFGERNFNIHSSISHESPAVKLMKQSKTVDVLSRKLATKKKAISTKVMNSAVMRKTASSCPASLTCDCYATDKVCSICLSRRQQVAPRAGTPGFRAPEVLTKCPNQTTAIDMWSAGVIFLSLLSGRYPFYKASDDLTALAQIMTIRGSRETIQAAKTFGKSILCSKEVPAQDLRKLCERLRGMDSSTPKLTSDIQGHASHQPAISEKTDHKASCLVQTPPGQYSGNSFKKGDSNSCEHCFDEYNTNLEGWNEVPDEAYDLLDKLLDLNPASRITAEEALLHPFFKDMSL
CDC7, sequence (Q9UBU7 whole entry partner): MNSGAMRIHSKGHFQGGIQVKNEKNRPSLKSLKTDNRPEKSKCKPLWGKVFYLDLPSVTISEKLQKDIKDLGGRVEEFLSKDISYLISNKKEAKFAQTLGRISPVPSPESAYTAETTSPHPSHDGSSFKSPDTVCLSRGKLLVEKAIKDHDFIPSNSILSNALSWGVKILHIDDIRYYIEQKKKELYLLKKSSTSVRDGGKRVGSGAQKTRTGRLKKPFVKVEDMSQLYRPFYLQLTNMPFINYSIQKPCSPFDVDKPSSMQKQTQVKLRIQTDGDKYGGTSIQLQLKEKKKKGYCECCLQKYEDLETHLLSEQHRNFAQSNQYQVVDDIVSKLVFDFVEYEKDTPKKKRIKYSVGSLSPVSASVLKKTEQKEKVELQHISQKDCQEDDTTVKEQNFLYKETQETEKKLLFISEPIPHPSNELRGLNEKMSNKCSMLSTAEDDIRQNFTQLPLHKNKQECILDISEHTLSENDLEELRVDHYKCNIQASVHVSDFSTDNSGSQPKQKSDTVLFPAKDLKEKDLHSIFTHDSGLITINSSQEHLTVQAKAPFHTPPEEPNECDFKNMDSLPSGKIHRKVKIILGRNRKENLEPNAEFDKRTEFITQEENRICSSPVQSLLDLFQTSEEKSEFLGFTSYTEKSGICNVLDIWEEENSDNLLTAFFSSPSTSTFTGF

`Nc1n[nH]c2ccc(C(=O)Nc3ccc(-c4nc5c(oc6ccc(Br)cc65)c(=O)[nH]4)c(Cl)c3)cc12` [Compound 393, ′3-amino-N-[4-(8-bromo-4-oxo-3,4-dihydro[1]benzofuro[3,2-d]pyrimidin-2-yl)-3-chlorophenyl]-1H-indazole-5-carboxamide]: the IC50 (in experiment [1]; on CK2; at CDC7 (setting [2])) was < 10 µM throughout.
As to `Cc1ccc(C(=O)Nc2ccc(-c3nc4c(oc5ccc(Br)cc54)c(=O)[nH]3)c(Cl)c2)cn1` [Compound 291, N-[4-(8-bromo-4-oxo-3,4-dihydro[1]benzofuro[3,2-d]pyrimidin-2-yl)-3-chlorophenyl]-6-methylpyridine-3-carboxamide], the IC50 (in experiment [1]; on CK2; on CDC7 (setting [2])) was < 10 µM each time.
In the case of `CNC1CCN(Cc2nc3c(oc4ccc(Br)cc43)c(=O)[nH]2)C1` (stereo not shown) [Compound 118, 8-bromo-2-{[3-(methylamino)pyrrolidin-1-yl]methyl}[1]benzofuro[3,2-d]pyrimidin-4(3H)-one], the concentration for half-maximal inhibition (IC50) (in experiment [1]; at CK2; on CDC7 (setting [2])) was < 10 µM each time.
For the compound `O=c1[nH]c(Nc2cccnc2)nc2c1oc1ccc(Br)cc12` [Compound 214, 8-bromo-2-(pyridin-3-ylamino)[1]benzofuro[3,2-d]pyrimidin-4(3H)-one], the half-inhibitory concentration (IC50) (in general, the midpoint of a concentration-inhibition curve) is < 10 µM in experiment [1], < 10 µM on CK2, < 10 µM on CDC7 (setting [2]) and < 0.1 µM at CDC7 (setting [3]).
Take `O=c1[nH]c(CN2CCCC(F)C2)nc2c1oc1ccc(Br)cc12` (stereo not shown) [Compound 317, 8-bromo-2-[(3-fluoropiperidin-1-yl)methyl][1]benzofuro[3,2-d]pyrimidin-4(3H)-one]: the IC50 in experiment [1] is < 10 µM; at CK2 it was < 10 µM; on CDC7 (setting [2]), < 10 µM; at CDC7 (setting [3]), < 0.1 µM.
`CSc1ccc2oc3c(=O)[nH]c(CN4CC[C@H](O)C4)nc3c2c1` [Compound 442, 2-{[(3S)-3-hydroxypyrrolidin-1-yl]methyl}-8-(methylthio)[1]benzofuro[3,2-d]pyrimidin-4(3H)-one]: the IC50 was < 10 µM in experiment [1], < 10 µM at CK2, < 10 µM at CDC7 (setting [2]) and < 0.1 µM at CDC7 (setting [3]).
Consider `CCc1ccc2oc3c(=O)[nH]c(CN4CC[C@H](O)C4)nc3c2c1` [Compound 460, 8-ethyl-2-{[(3S)-3-hydroxypyrrolidin-1-yl]methyl}[1]benzofuro[3,2-d]pyrimidin-4(3H)-one], for which the IC50 (in experiment [1]; on CK2; on CDC7 (setting [2])) was < 10 µM in each case.
Consider `O=c1[nH]c([C@@H]2C[C@H](O)CN2)nc2c1oc1ccc(Cl)cc12` [Compound 528, 8-chloro-2-[(2S,4S)-4-hydroxypyrrolidin-2-yl][1]benzofuro[3,2-d]pyrimidin-4(3H)-one], for which the IC50 in experiment [1] is < 10 µM; at CK2, < 10 µM; at CDC7 (setting [2]) it was < 10 µM; on CDC7 (setting [3]), < 0.1 µM.
As for `Cc1cnc(C(=O)Nc2ccc(-c3nc4c(oc5ccc(Br)cc54)c(=O)[nH]3)c(Cl)c2)cn1` [Compound 312, N-[4-(8-bromo-4-oxo-3,4-dihydro[1]benzofuro[3,2-d]pyrimidin-2-yl)-3-chlorophenyl]-5-methylpyrazine-2-carboxamide], the IC50 (in experiment [1]; at CK2; on CDC7 (setting [2])) was < 10 µM throughout.
Regarding `O=c1[nH]c(-c2ccc(NCCC3CCNCC3)cc2Cl)nc2c1oc1ccc(Br)cc12` [Compound 197, 8-bromo-2-{2-chloro-4-[(2-piperidin-4-ylethyl)amino]phenyl}[1]benzofuro[3,2-d]pyrimidin-4(3H)-one], the IC50 (in experiment [1]; at CK2; on CDC7 (setting [2])) was < 10 µM in each case.
Consider `O=c1c2oc3ccc(Br)cc3c2nc2n1CN1CCC[C@H]21` [Compound 452, (13bR)-11-bromo-1,2,3,13b-tetrahydro-7H-[1]benzofuro[3,2-d]pyrrolo[1′,2′:3,4]imidazo[1,5-a]pyrimidin-7-one], for which the IC50 was < 10 µM in experiment [1], < 10 µM on CK2, < 10 µM on CDC7 (setting [2]) and < 0.1 µM on CDC7 (setting [3]).
Consider `Nc1cc(-c2nc3c(oc4ccc(Br)cc43)c(=O)[nH]2)c(Cl)cn1` [Compound 173, 2-(2-amino-5-chloropyridin-4-yl)-8-bromo[1]benzofuro[3,2-d]pyrimidin-4(3H)-one], for which the IC50 is < 10 µM in experiment [1], < 10 µM at CK2, < 10 µM at CDC7 (setting [2]) and < 0.1 µM at CDC7 (setting [3]).
Consider `O=c1[nH]c([C@@H]2CCCN2)nc2c1oc1ccc(Cl)cc12` [Compound 507, 8-Chloro-2-[(2S)-pyrrolidin-2-yl][1]benzofuro[3,2-d]pyrimidin-4(3H)-one Hydrochloride], for which the IC50 was < 10 µM in experiment [1], < 10 µM at CK2, < 10 µM at CDC7 (setting [2]) and < 0.1 µM on CDC7 (setting [3]).
As for `O=c1[nH]c([C@@H]2CCCN2)nc2c1oc1ccccc12` [Compound 506, 2-[(2S)-pyrrolidin-2-yl][1]benzofuro[3,2-d]pyrimidin-4(3H)-one], the IC50 (in experiment [1]; on CK2; on CDC7 (setting [2])) was < 10 µM each time.
Regarding `NC(CCc1ccccc1)c1nc2c(oc3ccc(Br)cc32)c(=O)[nH]1` (stereo in doubt) [Compound 537, 2-[(1S)-1-amino-3-phenylpropyl]-8-bromo[1]benzofuro[3,2-d]pyrimidin-4(3H)-one], the concentration for half-maximal inhibition (IC50) (in experiment [1]; on CK2; at CDC7 (setting [2])) was < 10 µM each time.
As to `O=C(Nc1ccc(-c2nc3c(oc4ccc(Br)cc43)c(=O)[nH]2)c(Cl)c1)c1csnn1` [Compound 406, N-[4-(8-bromo-4-oxo-3,4-dihydro[1]benzofuro[3,2-d]pyrimidin-2-yl)-3-chlorophenyl]-1,2,3-thiadiazole-4-carboxamide], the IC50 (in experiment [1]; on CK2; at CDC7 (setting [2])) was < 10 µM throughout.
In the case of `CN1CCC(NCc2ccc(-c3nc4c(oc5ccc(Br)cc54)c(=O)[nH]3)c(Cl)c2)CC1` [Compound 435, 8-bromo-2-(2-chloro-4-{[(1-methylpiperidin-4-yl)amino]methyl}phenyl)[1]benzofuro[3,2-d]pyrimidin-4(3H)-one], the IC50 (in experiment [1]; at CK2; on CDC7 (setting [2])) was < 10 µM each time.
On to `Cn1ccc(C(=O)Nc2ccc(-c3nc4c(oc5ccc(Br)cc54)c(=O)[nH]3)c(Cl)c2)n1` [Compound 391], for which the half-inhibitory concentration (IC50) (in experiment [1]; at CK2; on CDC7 (setting [2])) was < 10 µM throughout.
As to `CN1CCC(c2nc3c(oc4ccc(Br)cc43)c(=O)[nH]2)C1` (stereo not shown) [Compound 289, 8-bromo-2-(1-methylpyrrolidin-3-yl)[1]benzofuro[3,2-d]pyrimidin-4(3H)-one], the IC50 is < 10 µM in experiment [1], < 10 µM at CK2, < 10 µM on CDC7 (setting [2]) and < 0.1 µM on CDC7 (setting [3]).
On to `Cc1cc(Br)cc2c1oc1c(=O)[nH]c(CN3CC[C@H](O)C3)nc12` [Compound 434, 8-bromo-2-{[(3S)-3-hydroxypyrrolidin-1-yl]methyl}-6-methyl[1]benzofuro[3,2-d]pyrimidin-4(3H)-one], for which the half-maximal inhibitory concentration (IC50) (in experiment [1]; at CK2; on CDC7 (setting [2])) was < 10 µM throughout.
Turning to `CC(=O)Nc1ccc(-c2nc3c(oc4ccc(Br)cc43)c(=O)[nH]2)c(Cl)c1` [Compound 121, N-[4-(8-bromo-4-oxo-3,4-dihydro[1]benzofuro[3,2-d]pyrimidin-2-yl)-3-chlorophenyl]acetamide], the IC50 (in experiment [1]; at CK2; on CDC7 (setting [2])) was < 10 µM in each case.
For the compound `Nc1ccc(-c2nc3c(oc4ccc(Br)cc43)c(=O)[nH]2)c(Cl)c1` [Compound 34, 2-(4-Amino-2-chlorophenyl)-8-bromo[1]benzofuro[3,2-d]pyrimidin-4(3H)-one], the IC50 (in experiment [1]; at CK2; on CDC7 (setting [2])) was < 10 µM each time.
Turning to `N[C@H](c1ccccc1)c1nc2c(oc3ccc(Br)cc32)c(=O)[nH]1` [Compound 490, 2-[(R)-amino(phenyl)methyl]-8-bromo[1]benzofuro[3,2-d]pyrimidin-4(3H)-one], the IC50 was < 10 µM in experiment [1], < 10 µM at CK2, < 10 µM on CDC7 (setting [2]) and < 0.1 µM at CDC7 (setting [3]).
For the compound `CCC(C)NCc1nc2c(oc3ccc(Br)cc32)c(=O)[nH]1` (stereo not shown) [Compound 232, 8-bromo-2-{[(1-methylpropyl)amino]methyl}[1]benzofuro[3,2-d]pyrimidin-4(3H)-one], the IC50 in experiment [1] is < 10 µM; at CK2, < 10 µM; on CDC7 (setting [2]), < 10 µM; on CDC7 (setting [3]), < 0.1 µM.
`Nc1ccc(Cl)c(-c2nc3c(oc4ccc(Br)cc43)c(=O)[nH]2)c1` [Compound 134, 2-(5-amino-2-chlorophenyl)-8-bromo[1]benzofuro[3,2-d]pyrimidin-4(3H)-one]: the IC50 (in experiment [1]; on CK2; on CDC7 (setting [2])) was < 10 µM each time.
`O=c1[nH]c(CN2CCC(F)(F)CC2)nc2c1oc1ccc(Br)cc12` [Compound 114, 8-bromo-2-[(4,4-difluoropiperidin-1-yl)methyl][1]benzofuro[3,2-d]pyrimidin-4(3H)-one]: the IC50 (in experiment [1]; at CK2; on CDC7 (setting [2])) was < 10 µM throughout.
Turning to `Cc1n[nH]c2ccc(-c3nc4c(oc5ccc(Br)cc54)c(=O)[nH]3)cc12` [Compound 123, 8-bromo-2-(3-methyl-1H-indazol-5-yl)[1]benzofuro[3,2-d]pyrimidin-4(3H)-one], the IC50 (in experiment [1]; on CK2; on CDC7 (setting [2])) was < 10 µM each time.

Source of the values: patent US20090247559A1 (Exelixis, Inc., priority 2007, published 2009).
